# In ChEMBL document CHEMBL3507680, “University of Dundee, Gates Library screen for HepG2 cell viability”:
# Experiment: Human HepG2 cell viability assay in 384 well format
# Assay type: toxicity, cell-based
# Design: dose 125 nL, time 70.5 hour; cytotoxicity at 70.5 h: concentration not given beside the values
# Conditions: HepG2 cells, read-out: Inhibition
row,Compound,cytotoxicity at 70.5 h [%]
1,CC(C)c1noc(CN(Cc2cccs2)C2CC2)n1,6.94
2,COCCN(C)Cc1ccc(OC)c(OC(F)F)c1,-5.27
3,COCCC(=O)Nc1ccnc(Oc2ccccc2)c1,2.24
4,O=C(COc1cccc2c1CCC2=O)NCCOc1ccccc1,15.4
5,COc1ccc(NC(=O)CNc2ccc(Br)cc2F)cc1,-1.21
6,CCN(CC)C(=O)c1ccc(NC(=O)CNc2ccc(Br)cc2F)cc1,4.87
7,Cc1cc(=O)n2ncnc2n1CC(O)c1ccccc1Cl (stereo unspecified),-3.15
8,Cc1ccc(S(=O)(=O)Nc2ccc(-n3cccc3C(=O)O)c(C)c2)s1,-3.61
9,Cc1ccc(-c2cc(C(=O)NC(C)C(=O)N3CCCCC3)on2)cc1 (stereo unspecified),5.48
10,Cc1ccccc1-c1cc(NC(=O)CC(C)C)n(CCO)n1,5.13
11,CC(=O)Nc1nc(CN2CCCCC2Cn2cccn2)cs1 (stereo unspecified),6.38
12,CCCNC(=O)Nc1cccc2c1CCN(S(C)(=O)=O)C2,-1.5
13,Cc1c(C(=O)NCC2CCCO2)nnn1-c1cccc2c1CCN(C)C2 (stereo unspecified),19.8
14,Cc1cccc(CNC(=O)CNc2cc(CO)ccc2Cl)c1,-3.8
15,CCN(C(=O)CCCOc1ccccc1F)c1ccncc1,1.58
16,CN(C)c1cc(C(=O)NCCc2nnc(-c3ccco3)[nH]2)ccn1,-5.78
17,NC(=O)Nc1cccc(Oc2ccccn2)c1,-4.42
18,Cn1ccnc1CN(CCCO)C1CCCc2ccccc21 (stereo unspecified),7.41
19,OCc1ccc(Cl)c(NCc2cccnc2)c1,19.4
20,O=C(C1CC1)N1CCCC1C1CCN(Cc2ccccc2)CC1 (stereo unspecified),1.42
21,c1coc(-c2nnc(CN3CCCC(CN4CCCCCC4)C3)o2)c1 (stereo unspecified),-1.85
22,Cn1ccnc1CNC(=O)N(CCCO)C1CCCc2ccccc21 (stereo unspecified),21.5
23,CN(C)C(=O)Cc1nc(CN2CCOC(Cn3cccn3)C2)cs1 (stereo unspecified),1.45

row,Compound,cytotoxicity at 70.5 h [%]
1,CC(C)C(=O)N1CCN(Cc2csc(-c3ncccn3)n2)CC1,-2.05
2,Cc1nc(C)n(CC2CCCN(Cc3nnc(C(C)(C)C)o3)C2)n1 (stereo unspecified),-0.371
3,N#Cc1ncn(CCC(=O)Nc2c(Cl)cccc2Cl)n1,-6.06
4,Cc1ccc(NC(=O)N2CCOC(C)C2)cc1Cl (stereo unspecified),-7.15
5,CC(C)(C)NC(=O)CN1CCN(C(=O)Nc2ccc(F)cc2F)CC1,9.46
6,Cc1nnc(NC(=O)NC2CCOc3ccccc32)s1 (stereo unspecified),-9.45
7,COc1cccc(CN(C)C(=O)CCC(=O)c2ccc(Cl)cc2)c1OC,-10.4
8,COCCCN1CCC(NC(=O)C(C)C)CC1,7.82
9,CCNC(=O)c1ccoc1CN1c2ccccc2CC1C (stereo unspecified),-5.21
10,Cc1noc(C)c1CNC(=O)N1CCC(CO)CC1,-3.59
11,Cc1ccc(C(=O)N2CCSCC2)cc1NC(=O)Cn1cncn1,-6.81
12,Cc1cccc(-n2cc(C(=O)N3CCn4c(C)nnc4C3)nn2)c1,9.22
13,Cc1cc(-c2nnn(CCNS(C)(=O)=O)n2)ccc1F,1.75
14,O=C(NCC(O)c1cccc(F)c1)c1cccnc1O (stereo unspecified),-5.45
15,Cc1ccc(OCC(=O)NCC(C)C)nc1,-3.31
16,N#Cc1ncn(CC(=O)Nc2cc(Cl)ccc2F)n1,-3.28
17,CSc1ccc(NS(=O)(=O)c2cnn(C)c2)cn1,-1.76
18,N#CCSCCCN1CCN(C(=O)c2ccc(Cl)cc2)CC1,6.83
19,Cc1ccc(C(=O)N2CCN(CCCSCC#N)CC2)o1,-3.91
20,CCN(C(c1cccnc1)c1ccc2c(c1)CCO2)S(C)(=O)=O (stereo unspecified),-4.03
21,CCN1CCCN(C(=O)c2cnc(OC(C)C)c(Cl)c2)CC1,9.31
22,CCc1nnc(CNCC2CCCN2c2cccnn2)o1 (stereo unspecified),-3.72
23,CC(C)Cc1noc(CN2CCN(C(=O)c3ccco3)CC2)n1,-9.38

row,Compound,cytotoxicity at 70.5 h [%]
1,Cc1cnn(CC2CCCN2C(=O)CCCc2nc(C)no2)c1 (stereo unspecified),32.9
2,CCc1csc(C2CCCN(C(=O)c3ccnc(N(C)C)c3)C2)n1 (stereo unspecified),19.9
3,CCc1nnc(C(C)N2CCCN(C(=O)Oc3ccccc3)CC2)o1 (stereo unspecified),2.06
4,CCC(=O)Nc1ccc(C(C)NC(=O)COCCOC)cc1 (stereo unspecified),3.18
5,CN(C)C(=O)N1CCN(CCn2nc3ccccn3c2=O)CC1,-2.81
6,CCOCC1CN(Cc2cnn(C)c2)Cc2ncn(C)c21 (stereo unspecified),-9.79
7,Cc1nccc([C@H]2C[C@@H]3CCN(C(=O)c4c(C)noc4C)C[C@H]3O2)n1,7.48
8,O=C1CC2(CCN(Cc3ccoc3)C2)CN1c1cncnc1 (stereo unspecified),-4.55
9,CN(C)C1COC2(CCN(Cc3ccncc3)CC2)C1 (stereo unspecified),-7.75
10,CC(=O)N1CCC2(CCCN(C(=O)c3ccc(Cl)c(C(F)(F)F)c3)C2)C1 (stereo unspecified),-14.2
11,CCOCC1CN(c2ncccn2)Cc2cnn(CC3CCOCC3)c21 (stereo unspecified),9.85
12,Cc1ccc(CNC(=O)C2=NOC3(CCCNC3)C2)cc1 (stereo unspecified),-13.2
13,O=C(NCC1Cn2nnc(-c3ccoc3)c2CO1)c1ccc[nH]1 (stereo unspecified),-9.78
14,O=C(c1ccccn1)N1C[C@@H](OCc2cccnc2)[C@H]2OCCC[C@@H]21,9.73
15,Cc1nnn2c1COCC(CNC(=O)c1ccc[nH]1)C2 (stereo unspecified),7.03
16,Cc1nc(CN2CCO[C@@H]3CN(C(=O)CC4CC4)CC[C@@H]3C2)cs1,-13.3
17,CC(C)NC(=O)N1CCC2(CC(=O)N(c3ccccc3)C2)C1 (stereo unspecified),17.9
18,Cc1nc([C@@H]2C[C@@H]3CCN(C(=O)c4ccsc4)C[C@H]3O2)no1,-4.84
19,O=C(NCC1CC1)C1=NOC2(CCN(S(=O)(=O)c3ccc(F)cc3)C2)C1 (stereo unspecified),-0.024
20,Cc1nc([C@@H]2C[C@@H]3CCN(C(=O)Cc4cccs4)C[C@H]3O2)no1,-11.4
21,CC(C)CNC(=O)[C@H]1C[C@@H]2CN(C(=O)NCCc3ccccc3)C[C@H]1O2,-10.9
22,CC(C)NC(=O)[C@H]1C[C@@H]2CN(C(=O)NCCc3ccccc3)C[C@H]1O2,8.95
23,COc1cccc(N2CC3(CCN(C(=O)NC(C)C)C3)CC2=O)c1 (stereo unspecified),-7.02

row,Compound,cytotoxicity at 70.5 h [%]
1,CCS(=O)(=O)N1CCc2c(cnc(-c3cccnc3)c2C(=O)O)C1,10.1
2,O=C(NCC1CC1)[C@H]1C[C@@H]2CN(C(=O)NCc3ccccc3)C[C@H]1O2,11.4
3,CCOCC1CN(C(=O)Cc2ccccn2)Cc2cn(CC)nc21 (stereo unspecified),-8.43
4,Cc1noc([C@H]2C[C@H]3CN(C(=O)Cc4ccsc4)CC[C@H]3O2)n1,-9.17
5,CCOCC1CN(C(=O)Cc2ccccn2)Cc2cn(C)nc21 (stereo unspecified),-10.7
6,O=C(c1cnccn1)N1C[C@@H]2CN(Cc3cccnc3)CCO[C@@H]2C1,18.1
7,Cn1cccc1C(=O)N1CCc2onc(Cn3cccn3)c2C1,-5.3
8,c1cnc(N2CCOCC3(CCCN(c4nncs4)C3)C2)cn1 (stereo unspecified),-3.82
9,O=C(NCc1ccc(Cl)cc1)C1=NOC2(CCNC2)C1 (stereo unspecified),-9.72
10,O=C(NCc1ccccc1)C1=NOC2(CCNC2)C1 (stereo unspecified),-11
11,O=C(c1ccoc1)N1CC[C@@H](N2CCOCC2)[C@@H]1Cc1ccccc1,-10.9
12,CCOCC1CN(Cc2cnn(C)c2)Cc2c1cnn2CC (stereo unspecified),7.67
13,CCOCC1CN(Cc2ccc(F)cc2)Cc2nn(C)cc21 (stereo unspecified),-11.9
14,Cn1cc(N2CC3(COCCN(Cc4nccs4)C3)OCC2=O)cn1 (stereo unspecified),-9.93
15,COCCC(=O)N1CC[C@@H](N2CCOCC2)[C@@H]1Cc1ccccc1,-8.94
16,O=C(c1cnccn1)N1C[C@@H](OCc2cccnc2)[C@H]2OCCC[C@H]21,8.16
17,COCC(=O)N1C[C@@H](OCc2cccnc2)[C@H]2OCCC[C@@H]21,14.3
18,c1csc(CN2CCc3nnc(COc4cncnc4)n3CC2)c1,-6.3
19,N#Cc1cccc(N2CC3(CCN(C(=O)c4ccncc4)C3)CC2=O)c1 (stereo unspecified),-5.96
20,CCOCC1CC2(CCN(C(=O)c3ccc4ccccc4n3)CC2)CO1 (stereo unspecified),-13.3
21,O=C(c1ccccn1)N1CCC2(CC1)COC(COCC1CC1)C2 (stereo unspecified),-8.98
22,CC(C)CCN1C[C@H]2C[C@H](C(=O)NCc3ccccc3)[C@@H](C1)O2,5.49
23,CN(C)CCO[C@H]1CN(C(=O)c2cccs2)[C@@H]2COC[C@H]12,20.9

row,Compound,cytotoxicity at 70.5 h [%]
1,Cn1cccc1C(=O)N1CCC2(CC1)COC(COc1ccccn1)C2 (stereo unspecified),-6.63
2,C1CN(CC2CC2)C(COCC2CC2)c2nnn(CC3CC3)c21 (stereo unspecified),-12.9
3,Cn1cc(CN2CCCC23CCN(C(=O)c2ccsc2)CC3)cn1,-5.87
4,Cn1cc(CN2CCCC23CCN(C(=O)c2ccccc2)CC3)cn1,-11.9
5,Cn1nnc2c1C(COCC1CC1)CN(Cc1ccoc1)C2 (stereo unspecified),-9.19
6,CCOCC1CN(Cc2cccnc2)Cc2nn(C)cc21 (stereo unspecified),-11.3
7,Cc1nnc(N2CC[C@H]3O[C@H](C(=O)NCc4ccccn4)CC[C@H]32)s1,-6.62
8,O=C1NC2(CCN(Cc3ccoc3)CC2)CC1c1ccncc1 (stereo unspecified),11
9,CCn1ncc2c1C(COCC1CC1)CN(c1ccncn1)C2 (stereo unspecified),-8.04
10,CN(Cc1ccco1)[C@@H]1CN(Cc2nccs2)C[C@@H]2CCCO[C@@H]21,-5.05
11,CN(Cc1cncnc1)[C@@H]1CN(Cc2ccco2)C[C@@H]2CCCO[C@@H]21,-14.6
12,CCOCC1CN(c2ccncn2)Cc2cnn(CC)c21 (stereo unspecified),-8.6
13,O=C1NC2(CCN(Cc3ccsc3)CC2)CC1c1ccncc1 (stereo unspecified),-9.73
14,COCC1CN(c2ccncn2)Cc2cnn(CC3CCCC3)c21 (stereo unspecified),-11.3
15,N#Cc1cccc(CN2CCC3(CC2)CC(c2ccncc2)C(=O)N3)c1 (stereo unspecified),-0.0024
16,Cc1nc(CN2CCO[C@@H]3CN(Cc4cccs4)C[C@@H]3C2)cs1,-4.54
17,c1csc(CN2CCOCC3(CCN(C4CCOCC4)C3)C2)c1 (stereo unspecified),-16.8
18,O=C(O)c1c(-c2cccnc2)ncc2c1CCN(Cc1ccccn1)C2,-8.57
19,CN(Cc1ccco1)[C@@H]1CN(Cc2ccccn2)C[C@@H]2CCCO[C@@H]21,-9.21
